Key:
[1] = molecular target: FAP-expressing human WI-38 fibroblasts (Homo sapiens (Human), UniProt Q12884); assay: FACS binding assay (competitive, Cy5-labeled 3BP-2935); settings: for pIC50 (FACS): FAP-expressing WI-38 fibroblasts
Procedure, shortened: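 Cells diluted to 100.000 cells per ml in FACS buffer, washed twice and analysed by flow cytometry. Median Cy5 fluorescence was plotted against test compound concentration, and pIC50 was derived by four-parameter logistic fit.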

Human recombinant FAP [2] = molecular target: T1, Human recombinant FAP (Homo sapiens (Human), UniProt Q12884); assay: FAP protease activity assay (human), FRET-based; assay type: biochemical; settings: for pIC50 (Activity): recombinant human FAP, FRET protease activity
Procedure: (§1) In order to determine the inhibitory activity a FRET-based FAP protease activity assay was established.
Four parameter logistic (4PL) curve fitting and pIC50 calculations were performed using ActivityBase software (IDBS).
Target sequence in this assay (Q12884 26-760): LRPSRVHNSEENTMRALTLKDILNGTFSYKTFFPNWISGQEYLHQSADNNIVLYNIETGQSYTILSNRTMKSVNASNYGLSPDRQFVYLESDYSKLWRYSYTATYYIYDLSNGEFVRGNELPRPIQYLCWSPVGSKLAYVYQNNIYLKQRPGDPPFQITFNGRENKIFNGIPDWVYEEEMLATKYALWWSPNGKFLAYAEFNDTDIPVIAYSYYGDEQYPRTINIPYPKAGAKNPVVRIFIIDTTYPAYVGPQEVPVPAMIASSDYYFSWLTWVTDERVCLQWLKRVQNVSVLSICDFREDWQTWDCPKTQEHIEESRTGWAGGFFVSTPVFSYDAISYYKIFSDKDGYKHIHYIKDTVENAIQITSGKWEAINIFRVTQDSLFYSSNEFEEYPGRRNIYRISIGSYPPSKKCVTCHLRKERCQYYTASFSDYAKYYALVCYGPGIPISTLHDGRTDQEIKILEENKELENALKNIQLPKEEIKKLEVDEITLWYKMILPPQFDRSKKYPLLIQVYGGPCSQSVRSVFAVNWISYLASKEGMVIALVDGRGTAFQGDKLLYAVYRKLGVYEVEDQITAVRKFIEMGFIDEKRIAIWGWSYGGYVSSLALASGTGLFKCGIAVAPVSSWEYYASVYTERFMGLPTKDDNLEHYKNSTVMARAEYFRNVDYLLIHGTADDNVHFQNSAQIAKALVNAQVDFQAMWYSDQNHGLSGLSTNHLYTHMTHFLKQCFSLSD

Human recombinant FAP [3] = molecular target: T1, Human recombinant FAP; assay: Surface plasmon resonance assay (Biacore T200, SCK); assay type: binding; settings: for HL [min] (Biacore): SPR dissociation half-life
Procedure: Surface plasmon resonance studies were performed using a Biacore™ T200 SPR system (Cytiva, formerly GE Healthcare). Briefly, polarized light is directed towards a gold-labeled sensor surface, and minimum intensity reflected light is detected. The angle of reflected light changes as molecules bind and dissociate. […] Test compounds are contacted with the loaded surface, and a real-time interaction profile with the FAP ligand is recorded in a sensorgram. In real-time, the association and dissociation of a binding interaction is measured, enabling calculation of association and dissociation rate constants and the corresponding affinity constants. Importantly, a background response is generated due to the difference in the refractive indices of the running and sample buffers, as well as unspecific binding of the test compounds to the flow cell surface. This background is measured and subtracted by running the sample on a control flow cell coated with the same density of capture antibody in the absence of immobilized FAP. Furthermore, baseline drift correction of the binding data is performed, which is caused by slow dissociation of the captured FAP from the immobilized antibody. This drift is measured by injecting running buffer through a flow cell with the antibody and FAP immobilized to the sensor surface.
Biacore™ CM5 sensor chips were used. […] A 150 μL aliquot was transferred into plastic vials and placed into the sample rack of the Biacore™ T200 instrument. Amine Coupling Kit Reagent solutions were transferred into plastic vials and placed into the sample rack: 90 μL of 0.4 M 1-ethyl-3-(3-dimethylaminopropyl) carbodiimide (EDC), and 90 μL of 0.1 M N-hydroxysuccinimide (NHS). A 130 μL aliquot of 1 M ethanolamine-HCl, pH 8.5, was transferred into plastic vials and placed into the sample rack. The Biacore™ liquid system was set-up as follows: Separate bottles containing distilled water (1 L), Running Buffer (500 mL), as well as an empty bottle for waste were placed onto the buffer tray. A preinstalled program for immobilization was used, with an immobilization level of 7000 RU. Immobilization was performed at 25° C. The immobilization procedure of anti-FAP antibodies was performed, as described in the Table 4.
Human recombinant FAP was diluted in Running Buffer to a final concentration of 20 μg/mL. A 100 μL aliquot of human FAP-Working-Solution was transferred into plastic vials and placed into a sample rack. A 0.5 mM Compound-Stock-Solution was prepared by dissolving each compound in DMSO. For each test compound, Compound-Stock-Solutions were diluted in Running Buffer (HBST) at 500 nM and further diluted with HBST-DMSO Buffer (0.1% DMSO). SPR binding analyses for binary complexes were performed in SCK mode at 25° C. Following three SCK measurements, a baseline drift was assessed by injecting running buffer through a flow cell, with the antibody and FAP immobilized to the sensor surface.
For each test compound, SPR raw data in the form of resonance units (RU) were plotted as sensorgrams using the Biacore™ T200 control software. The signal from the blank sensorgram was subtracted from that of the test compound sensorgram (blank corrected). The blank corrected sensorgram was corrected for baseline drift by subtracting the sensorgram of a SCK run without the test compound (running buffer only). The association rate (kon), dissociation rate (koff), dissociation constant (KD), and t1/2 were calculated from Blank-normalized SPR data using the 1:1 Langmuir binding model from the Biacore™ T200 evaluation software. Raw data and fit results were imported as text files in IDBS. The pKD value (negative decadic logarithm of dissociation constant) was calculated in the IDBS excel template.
Target sequence in this assay (Q12884 whole entry): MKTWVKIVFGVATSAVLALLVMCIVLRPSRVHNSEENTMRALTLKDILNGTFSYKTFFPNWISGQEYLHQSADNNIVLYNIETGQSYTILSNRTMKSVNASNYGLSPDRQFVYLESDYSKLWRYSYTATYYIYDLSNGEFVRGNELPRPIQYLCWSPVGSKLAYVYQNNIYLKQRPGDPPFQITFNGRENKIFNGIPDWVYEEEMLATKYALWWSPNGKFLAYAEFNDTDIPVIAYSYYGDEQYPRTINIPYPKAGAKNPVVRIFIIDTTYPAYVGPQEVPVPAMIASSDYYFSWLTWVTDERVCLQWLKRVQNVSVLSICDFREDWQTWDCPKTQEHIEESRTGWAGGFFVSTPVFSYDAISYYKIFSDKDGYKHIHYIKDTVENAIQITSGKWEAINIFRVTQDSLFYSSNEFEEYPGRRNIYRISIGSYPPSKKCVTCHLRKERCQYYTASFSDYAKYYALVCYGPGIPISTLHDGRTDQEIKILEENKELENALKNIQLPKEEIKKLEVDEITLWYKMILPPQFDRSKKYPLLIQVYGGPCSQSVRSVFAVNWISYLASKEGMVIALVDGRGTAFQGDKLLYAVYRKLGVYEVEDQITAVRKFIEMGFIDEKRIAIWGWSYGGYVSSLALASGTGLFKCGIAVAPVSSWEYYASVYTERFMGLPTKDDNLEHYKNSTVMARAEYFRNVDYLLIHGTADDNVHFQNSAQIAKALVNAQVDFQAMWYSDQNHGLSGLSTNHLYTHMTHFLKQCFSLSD

Recombinant mouse FAP = Recombinant mouse FAP (Mus musculus (Mouse), UniProt P97321); assay: FAP protease activity assay (mouse), FRET-based; assay type: biochemical; settings: recombinant mouse FAP, FRET protease activity
Procedure: as §1
Four parameter logistic (4PL) curve fitting and pIC50 calculations were performed using ActivityBase software.

recombinant human PREP = recombinant human PREP (Homo sapiens (Human), UniProt P48147); assay: PREP protease activity assay; assay type: biochemical
Procedure: (§2) The PREP activity assay was performed using the FACS buffer (PBS including 1% FBS, Sigma-Aldrich, Cat #D8537). […] The DPP4 activity assay was performed in DPP assay buffer (25 mM Tris, pH 8.0). […] Four parameter logistic (4PL) curve fitting and pIC50 calculations were performed using ActivityBase software.

Recombinant human DPP4 = Recombinant human DPP4 (Homo sapiens (Human), UniProt P27487); assay: DPP4 protease activity assay; assay type: biochemical
Procedure: as §2

[4] = Plasma stability assay (mouse plasma); assay type: in vitro ADME; settings: 37° C., 4 h
Procedure: In order to determine the stability of selected compounds of the invention in human and mouse plasma, a plasma stability assay was carried out. Such plasma stability assay measures degradation of compounds of the present invention in blood plasma. This is an important characteristic of a compound as compounds, with the exception of pro-drugs, which rapidly degrade in plasma, generally show poor in vivo efficacy. […] The stability is sufficient for the diagnostic, therapeutic and theragnostic use of these compounds according to the present invention.
The plasma stability samples were prepared by spiking 50 μl plasma aliquots (all sodium citrate 3.8%) with 1 μL of a 0.5 mM compound stock solution in DMSO. After vortexing, the samples were incubated in a Thermomixer at 37° C. for 4 or 6 hours. After incubation, the samples were stored on ice until further treatment. All samples were prepared in duplicates.
A suitable internal standard was added to each sample (1 μL of a 0.5 mM stock solution in DMSO). Protein precipitation was performed using two different methods depending on the compound conditions as indicated in Table 7. • A) 250 μL of acetonitrile containing 1% trifluoroacetic acid was added. […] After incubation at room temperature for 30 min, the precipitate was separated by centrifugation. To 100 μL of the supernatant 10 μL of 1% formic acid was added followed by further incubation at 60° C. for 10 min to complete the formation of the zinc chelate, if the compound contains a free DOTA moiety.
The determination of the analyte in the clean sample solutions was performed on an Agilent 1290 UHPLC system coupled to an Agilent 6530 Q-TOF mass spectrometer. The chromatographic separation was carried out on a Phenomenex BioZen XB-C18 HPLC column (50×2 mm, 1.7 μm particle size) with gradient elution using a mixture of 0.1% formic acid in water as eluent A and acetonitrile as eluent B (2% B to 41% in 7 min, 800 μL/min, 40° C.). Mass spectrometric detection was performed in positive ion ESI mode by scanning the mass range from m/z 50 to 3000 with a sampling rate of 2/sec.
From the mass spectrometric raw data, the ion currents for the double or triple charged monoisotopic signal was extracted for both, the compound and the internal standard.
Quantitation was performed by external matrix calibration with internal standard using the integrated analyte signals.
The result is stated as “% intact compound remaining after 4 h or 6 h” and means that from the amount of material at the start of the experiment the stated percentage is detected as unchanged material at the end of the experiment by LC-MS quantification. Since all compounds are more than 50% intact after at least 4 h they are considered as stable enough for diagnostic and therapeutic applications.

Chain of FAP-expressing human WI-38 fibroblasts (Q12884 whole entry): as above
Chain of Recombinant mouse FAP (P97321 whole entry): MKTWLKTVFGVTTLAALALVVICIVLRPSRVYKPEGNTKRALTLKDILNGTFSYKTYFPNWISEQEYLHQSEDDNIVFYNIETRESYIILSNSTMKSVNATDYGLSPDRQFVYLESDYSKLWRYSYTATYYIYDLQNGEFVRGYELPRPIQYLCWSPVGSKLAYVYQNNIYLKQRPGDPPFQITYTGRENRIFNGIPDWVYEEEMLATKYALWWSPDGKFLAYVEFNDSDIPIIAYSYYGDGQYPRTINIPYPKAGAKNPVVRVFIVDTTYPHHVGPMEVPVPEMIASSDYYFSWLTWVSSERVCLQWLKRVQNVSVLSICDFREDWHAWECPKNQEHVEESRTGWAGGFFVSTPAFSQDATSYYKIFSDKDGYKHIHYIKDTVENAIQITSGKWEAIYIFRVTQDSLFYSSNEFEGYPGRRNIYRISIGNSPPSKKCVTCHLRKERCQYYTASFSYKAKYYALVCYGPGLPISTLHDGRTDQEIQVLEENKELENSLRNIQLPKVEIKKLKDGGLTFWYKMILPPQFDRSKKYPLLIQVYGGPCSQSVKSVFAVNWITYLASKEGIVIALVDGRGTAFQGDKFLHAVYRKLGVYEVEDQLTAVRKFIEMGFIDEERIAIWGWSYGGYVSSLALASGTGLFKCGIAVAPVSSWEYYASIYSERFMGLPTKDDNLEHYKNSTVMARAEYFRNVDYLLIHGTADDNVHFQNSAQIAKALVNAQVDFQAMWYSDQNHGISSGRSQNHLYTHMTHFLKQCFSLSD
Chain of Recombinant human DPP4 (P27487 whole entry): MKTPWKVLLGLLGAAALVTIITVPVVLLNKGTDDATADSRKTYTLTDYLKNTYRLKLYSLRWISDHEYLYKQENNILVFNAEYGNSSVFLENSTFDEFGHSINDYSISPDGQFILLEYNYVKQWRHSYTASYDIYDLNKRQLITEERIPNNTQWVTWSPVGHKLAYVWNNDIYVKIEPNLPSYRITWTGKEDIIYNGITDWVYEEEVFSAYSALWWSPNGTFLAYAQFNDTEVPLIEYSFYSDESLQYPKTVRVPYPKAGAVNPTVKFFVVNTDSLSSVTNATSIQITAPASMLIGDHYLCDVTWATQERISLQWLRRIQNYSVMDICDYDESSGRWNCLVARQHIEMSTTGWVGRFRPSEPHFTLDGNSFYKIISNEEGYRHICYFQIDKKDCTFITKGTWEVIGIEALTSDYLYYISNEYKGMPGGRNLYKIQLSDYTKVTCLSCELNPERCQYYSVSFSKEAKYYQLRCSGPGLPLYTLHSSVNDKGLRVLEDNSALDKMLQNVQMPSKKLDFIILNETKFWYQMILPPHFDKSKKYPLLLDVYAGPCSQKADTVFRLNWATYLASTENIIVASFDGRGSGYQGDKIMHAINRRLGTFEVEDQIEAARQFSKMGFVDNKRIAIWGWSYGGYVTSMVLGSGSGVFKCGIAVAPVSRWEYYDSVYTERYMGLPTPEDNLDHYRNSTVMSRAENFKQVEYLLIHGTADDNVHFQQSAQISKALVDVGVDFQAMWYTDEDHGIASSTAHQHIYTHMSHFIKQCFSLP
Chain of recombinant human PREP (P48147 whole entry): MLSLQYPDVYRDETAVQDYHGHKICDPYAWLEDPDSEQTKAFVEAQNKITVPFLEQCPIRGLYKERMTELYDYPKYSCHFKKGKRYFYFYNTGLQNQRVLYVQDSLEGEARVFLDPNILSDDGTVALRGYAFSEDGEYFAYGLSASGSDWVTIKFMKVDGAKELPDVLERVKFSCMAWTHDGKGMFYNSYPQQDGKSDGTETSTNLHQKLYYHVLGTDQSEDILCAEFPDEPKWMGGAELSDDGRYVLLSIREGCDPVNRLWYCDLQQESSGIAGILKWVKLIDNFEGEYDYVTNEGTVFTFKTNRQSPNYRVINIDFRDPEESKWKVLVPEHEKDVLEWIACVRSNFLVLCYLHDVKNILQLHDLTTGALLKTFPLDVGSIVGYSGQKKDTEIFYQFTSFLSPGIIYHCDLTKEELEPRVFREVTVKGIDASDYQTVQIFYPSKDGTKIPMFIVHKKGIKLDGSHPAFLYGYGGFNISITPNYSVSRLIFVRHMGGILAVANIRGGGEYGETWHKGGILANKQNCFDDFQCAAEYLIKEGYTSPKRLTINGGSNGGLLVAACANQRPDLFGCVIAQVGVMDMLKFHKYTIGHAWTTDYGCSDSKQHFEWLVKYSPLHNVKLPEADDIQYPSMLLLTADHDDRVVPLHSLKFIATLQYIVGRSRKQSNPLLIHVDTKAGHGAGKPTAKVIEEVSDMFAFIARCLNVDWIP

SMILES | pIC50 (FACS) [1] | pIC50 (Activity) (Human recombinant FAP [2]) | pKD (Biacore) (Human recombinant FAP [3]; SPR) | HL [min] (Biacore) (Human recombinant FAP [3]) | pIC50 (mouseFAP) (Recombinant mouse FAP) | pIC50 (PREP) (recombinant human PREP) | pIC50 (DPP4) (Recombinant human DPP4) | % intact compound remaining after incubation, Mouse plasma [4] [%] | IC50 ([1]; WI-38 fibroblasts) [nM] | IC50 (Human recombinant FAP [2]; human FAP protease activity, FRET, read-out: pIC50 (Activity) (converted)) [nM] | Kd (Human recombinant FAP [3]; SPR, read-out: pKD (Biacore) (converted)) [nM] | IC50 (recombinant human PREP) [nM] | IC50 (Recombinant human DPP4; read-out: pIC50 (DPP4) (converted)) [nM]
CS(=O)(=O)c1cccc(-c2ccc3nccc(C(=O)NCC(=O)N4CC(F)(F)C[C@H]4C#N)c3c2)c1 [Compound 3BP-3126] | 8.8 | 9.2 | 10.1 | 29 | 9 | <6 | 6.1 | 78 |  |  |  |  | 
CS(=O)(=O)c1cccc(-c2ccc3c(C(=O)NCC(=O)N4CC(F)(F)C[C@H]4C#N)ccnc3c2)c1 [Compound 3BP-3127] | 8.7 | 9.1 | 10.1 |  | 8.9 | <6 | <6 | >95 |  |  |  |  | 
CS(=O)(=O)c1ccc(-c2ccc3c(C(=O)NCC(=O)N4CCC[C@H]4C#N)ccnc3c2)cc1 [Compound 3BP-3128] | 8.2 | 8.8 | 9.2 | 4 |  | 6.1 | <6 | >95 |  |  |  |  | 
O=C(NCC(=O)N1CCC[C@H]1C(=O)c1ncco1)c1ccnc2ccccc12 [Compound 3BP-3208] | 7.9 | 8.2 | 8.6 | 0.6 |  | 9.2 | <6 | 92 |  |  |  |  | 
CS(=O)(=O)c1ccc(-c2ccc3nccc(C(=O)NCC(=O)N4CC(F)(F)C[C@H]4C#N)c3c2)cc1 [Compound 3BP-3233] | 9 | 9.2 | >10.5 | 130 | 9.1 | <6 | <6 |  |  |  |  |  | 
N#C[C@@H]1CC(F)(F)CN1C(=O)CNC(=O)c1ccnc2c1=CC(OCCCN1CCN(C(=O)CN3CCN4CCN5CCN(CC3)CC(=O)[O][In]([O]C(=O)C5)[O]C(=O)C4)CC1)CC=2 (some centres unmarked) [Compound 3BP-3468] | 8.7 | 9.2 | 10.5 | 69 | 9 | <6 | <6 |  |  |  |  |  | 
CC(C)(C)c1nnc(C(=O)[C@@H]2CCCN2C(=O)CNC(=O)c2ccnc3ccccc23)o1 [Compound 3BP-3632] | 7.8 | 8.4 | 8.6 | 0.4 | 8.4 | 8.9 | <6 |  |  |  |  |  | 
N#C[C@@H]1CCCN1C(=O)CNC(=O)c1ccnc2ccc(-c3ccc(C(=O)NCCCN(CC(=O)O)C(=O)CN4CCN(CC(=O)O)CCN(CC(=O)O)CCN(CC(=O)O)CC4)cc3)cc12 [Compound 3BP-3954, (S)-2,2′,2″-(10-(2-((carboxymethyl)(3-(4-(4-(2-(2-cyanopyrrolidin-1-yl)-2-oxoethylcarbamoyl)quinolin-6-yl)benzamido)propyl)amino)-2-oxoethyl)-1,4,7,10-tetraazacyclododecane-1,4,7-triyl)triacetic Acid] |  |  |  | >150 |  |  |  |  | 3.98 | 1.26 | < 0.0316 | > 1000 | > 1000
